The source of these data is patent US9012489B2, “Phenyl-3-aza-bicyclo[3.1.0]hex-3-yl-methanones and the use thereof as medicament” (Boehringer Ingelheim International GmbH, priority 2011, dated 2015).

For the experiment, the target named is T1, GlyT1 transporter (Homo sapiens, UniProt P48067).
T1 construct: endogenously expressing the GlyT1 transporter; host or cells: SK-N-MC human neuroblastoma cells
T1 sequence (P48067 1-706): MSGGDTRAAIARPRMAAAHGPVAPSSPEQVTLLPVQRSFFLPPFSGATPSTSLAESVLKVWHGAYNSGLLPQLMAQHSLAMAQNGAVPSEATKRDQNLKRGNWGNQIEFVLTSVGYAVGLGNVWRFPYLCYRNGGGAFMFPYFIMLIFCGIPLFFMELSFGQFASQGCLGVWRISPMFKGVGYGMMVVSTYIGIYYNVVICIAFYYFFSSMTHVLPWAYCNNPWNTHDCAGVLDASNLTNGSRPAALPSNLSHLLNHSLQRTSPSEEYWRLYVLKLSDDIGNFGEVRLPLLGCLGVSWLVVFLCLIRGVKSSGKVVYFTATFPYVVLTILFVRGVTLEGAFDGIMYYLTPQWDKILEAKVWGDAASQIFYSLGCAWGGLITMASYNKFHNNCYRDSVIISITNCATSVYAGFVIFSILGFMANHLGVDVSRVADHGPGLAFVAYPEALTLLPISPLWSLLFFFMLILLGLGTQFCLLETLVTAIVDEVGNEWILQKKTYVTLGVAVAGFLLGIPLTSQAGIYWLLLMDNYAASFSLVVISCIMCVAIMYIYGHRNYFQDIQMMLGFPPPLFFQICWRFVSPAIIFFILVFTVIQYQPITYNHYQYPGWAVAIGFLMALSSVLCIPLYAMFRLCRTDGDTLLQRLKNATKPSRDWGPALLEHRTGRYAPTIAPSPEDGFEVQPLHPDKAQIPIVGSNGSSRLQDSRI
Description: GlyT1 assay: 3H-glycine uptake into SK-N-MC cells (Cytostar-T format). The following applies: glycine uptake in human SK-N-MC cells endogenously expressing GlyT1; 500 nM glycine, 1% DMSO, signal recorded over 60 min. It is filed as cell-based. In outline:
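Uptake slopes, measured over 60 min from the linear kinetic range, give IC50 from 8 compound concentrations, with 10 μM RG-1678 setting background. Substrate is 500 nM glycine (250 nM ³H, 250 nM unlabelled) in HBSS/5 mM alanine, 1% DMSO, after roughly 5-10 min compound preincubation. Cells: confluent SK-N-MC endogenously expressing human GlyT1.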
As to `C[C@H](Oc1ccc(S(C)(=O)=O)cc1C(=O)N1CC2CC2(c2noc(C3(C(F)(F)F)CC3)n2)C1)C(F)(F)F` (single isomer, unassigned) [Example 67, [5-Methanesulfonyl-2-(2,2,2-trifluoro-1-methyl-ethoxy)-phenyl]-{1-[5-(1-trifluoromethyl-cyclopropyl)-[1,2,4]oxadiazol-3-yl]-3-aza-bicyclo[3.1.0]hex-3-yl}-methanone], half-maximal inhibition (IC50) was put at 100 nM. This counts as sub-micromolar.

Turning to `C[C@@H](Oc1ccc(S(C)(=O)=O)cc1C(=O)N1CC2CC2(c2noc(C3(C(F)(F)F)CC3)n2)C1)C(F)(F)F` (single isomer, unassigned) [Example 69, [5-Methanesulfonyl-2-(2,2,2-trifluoro-1-methyl-ethoxy)-phenyl]-{1-[5-(1-trifluoromethyl-cyclopropyl)-[1,2,4]oxadiazol-3-yl]-3-aza-bicyclo[3.1.0]hex-3-yl}-methanone], the IC50 (usually the concentration that gives 50% inhibition) was 3 nM.

`C[C@@H](Oc1ccc(S(C)(=O)=O)cc1C(=O)N1CC2CC2(c2noc(C3(C(F)(F)F)CC3)n2)C1)C(F)(F)F` (single isomer, unassigned) [Example 70, [5-Methanesulfonyl-2-(2,2,2-trifluoro-1-methyl-ethoxy)-phenyl]-{1-[5-(1-trifluoromethyl-cyclopropyl)-[1,2,4]oxadiazol-3-yl]-3-aza-bicyclo[3.1.0]hex-3-yl}-methanone] registered an IC50 of 155 nM.

With `CCS(=O)(=O)c1ccc(O[C@@H](C)C(F)(F)F)c(C(=O)N2CC3CC3(c3nccc(C(F)(F)F)n3)C2)c1` (single isomer, unassigned) [Example 74, [5-Ethanesulfonyl-2-(2,2,2-trifluoro-1-methyl-ethoxy)-phenyl]-[1-(4-trifluoromethyl-pyrimidin-2-yl)-3-aza-bicyclo[3.1.0]hex-3-yl]-methanone], the IC50 amounted to 4 nM.

In the case of `CCS(=O)(=O)c1ccc(O[C@@H](C)C(F)(F)F)c(C(=O)N2CC3CC3(c3nccc(C(F)(F)F)n3)C2)c1` (single isomer, unassigned) [Example 75, [5-Ethanesulfonyl-2-(2,2,2-trifluoro-1-methyl-ethoxy)-phenyl]-[1-(4-trifluoromethyl-pyrimidin-2-yl)-3-aza-bicyclo[3.1.0]hex-3-yl]-methanone], the IC50 is 110 nM.

For the compound `CCS(=O)(=O)c1ccc(O[C@H](C)C(F)(F)F)c(C(=O)N2CC3CC3(c3nccc(C(F)(F)F)n3)C2)c1` (single isomer, unassigned) [Example 77, [5-Ethanesulfonyl-2-(2,2,2-trifluoro-1-methyl-ethoxy)-phenyl]-[1-(4-trifluoromethyl-pyrimidin-2-yl)-3-aza-bicyclo[3.1.0]hex-3-yl]-methanone], the midpoint of inhibition, the IC50, lay at 113 nM.

Take `CCS(=O)(=O)c1ccc(O[C@H](C)C(F)(F)F)c(C(=O)N2CC3CC3(c3nccc(C(F)(F)F)n3)C2)c1` (single isomer, unassigned) [Example 78, [5-Ethanesulfonyl-2-(2,2,2-trifluoro-1-methyl-ethoxy)-phenyl]-[1-(4-trifluoromethyl-pyrimidin-2-yl)-3-aza-bicyclo[3.1.0]hex-3-yl]-methanone]: the IC50 was 7 nM.

Compound `C[C@@H](Oc1ccc(S(C)(=O)=O)cc1C(=O)N1CC2CC2(c2coc(C3CC3)n2)C1)C(F)(F)F` (single isomer, unassigned) [Example 82] showed an IC50 of 782 nM. Against the preceding compound, the IC50 is about 110-fold higher.

The compound `C[C@@H](Oc1ccc(S(C)(=O)=O)cc1C(=O)N1CC2CC2(c2coc(C3CC3)n2)C1)C(F)(F)F` (single isomer, unassigned) [Example 83] yielded a half-maximal inhibitory concentration (IC50) of 3 nM. This IC50 lies about 260-fold lower than the previous one.

In turn, `C[C@H](Oc1ccc(S(C)(=O)=O)cc1C(=O)N1CC2CC2(c2nc(C(F)(F)F)no2)C1)C(F)(F)F` (single isomer, unassigned) [Example 84, [5-Methanesulfonyl-2-(2,2,2-trifluoro-1-methyl-ethoxy)-phenyl]-[1-(3-trifluoromethyl-[1,2,4]oxadiazol-5-yl)-3-aza-bicyclo[3.1.0]hex-3-yl]-methanone] yielded a half-inhibitory concentration (IC50) of 16 nM.
